Earlier results on seven molecules are cited in patent US20100113469A1, “COMBINATION THERAPY FOR THE TREATMENT-OF LOWER URINARY TRACT SYMPTOMS” (MERCK & CO., INC., priority 2007, published 2010).

Data set [1] relates to rats. The note with it: hyperreflexia paradigms, intravenous.
Data set [2] has as its system rats. The conditions noted are these: detrusor instability paradigm, oral.
The test system of data set [3] is rats. The note with it: intravenous.
The subject of a further data set is patients. The note with it: instilled directly into the bladder.
A further data set concerns human bladders. The note with it: in vitro.
Data set [4] has as its system rats.

Consider `C[C@H](Cc1ccc2c(c1)OC(C(=O)[O-])(C(=O)[O-])O2)NC[C@H](O)c1cccc(Cl)c1.[Na+].[Na+]` [CL316243], for which the voiding interval entry in the data set on rats [1] is on record as “dose-dependently normalizes voiding interval”. The spontaneous bladder contractions entry with rats [2] is “dose-dependent inhibition of spontaneous bladder contractions”. The bladder pressure entry with rats [3] is “reduces bladder pressure”. For the same molecule, in the data set on rats [3] (cystometric studies), the bladder capacity entry is given as “increases bladder capacity” and the residual urine volume result is “without increasing residual urine volume”.
Take `COc1cc(CNC(=O)CCCC/C=C/C(C)C)ccc1O` [Capsaicin, capsaicin]: the “patients with beneficial effects (i.e. increased bladder capacity)” value in the data set on patients was ~70%.
With `CCCCCCNC(=O)Nc1ccc(S(=O)(=O)Nc2ccc(CCNC[C@H](O)COc3ccc(O)cc3)cc2)cc1` [L-755507], the “relaxation evoked in control versus obstructed human bladders” value in the data set on human bladders is recorded as “equivalent”.
Turning to `COc1ccccc1CC(=N)N1C[C@@H]2C(=O)CCC(c3ccccc3)(c3ccccc3)[C@@H]2C1` [RP 67580], the volume threshold result in the data set on rats [4] (cyclophosphamide-induced bladder overactivity, i.t. vs i.v.) is on record as “increased the volume threshold after i.t., but not i.v. administration”.
Consider `C=C(C)[C@]12C[C@@H](C)[C@@]34O[C@](Cc5ccccc5)(O[C@@H]1[C@@H]3C=C(COC(=O)Cc1ccc(O)c(OC)c1)C[C@]1(O)C(=O)C(C)=C[C@@H]41)O2` [Resinferatoxin], for which the “potency relative to capsaicin” value with C-fibers is ~100 fold.
As for `CC(=O)NC1(c2ccccc2)CCN(CC[C@H](CN(C)C(=O)c2ccccc2)c2ccc(Cl)c(Cl)c2)CC1` [SR 48968], the “response in cyclophosphamide-induced model” value in the data set with rats [4] (10 nmol/rat) is recorded as “moderate response”.
On to `Cc1ccc(-c2c3n(c(=O)c4ncccc24)CC[C@@H](C)CN(Cc2cc(C(F)(F)F)cc(C(F)(F)F)c2)C3=O)cc1` [TAK-637], for which the “carbachol or electrical field stimulation induced contractions” value in the data set with isolated bladder strips was “had no effect”. For the same molecule, in the data set with guinea pig (guinea pig, in vivo), the “micturition reflex induced by topical application of capsaicin onto the bladder dome” value is recorded as “inhibited the micturition reflex”. In addition, the “distension-induced rhythmic bladder contractions” value in the data set with guinea pig (guinea pig, systemic administration) is recorded as “decreased the number but not the amplitude”. In addition, the “spinal vesico-vesical reflex induced by electrical stimulation of the proximal cut end of the pelvic nerve” value in the data set on guinea pig (spinal animals) was “inhibits the spinal vesico-vesical reflex”. Moreover, the “micturition reflex induced by electrical stimulation of the rostral brainstem near the locus coeruleus” value in the data set on decerebrate cats (3 mg/kg i.v.) was “did not inhibit”. Further, the voiding efficiency result in the data set on decerebrate cats (decerebrate cats, 0.1, 0.3, 1 and 3 mg/kg i.v.) was “without any significant reduction in voiding efficiency”. The “maximal increase in bladder capacity” value with decerebrate cats (decerebrate cats, 0.1, 0.3, 1 and 3 mg/kg i.v., dose-dependent) is listed as 94%.
